Data as given in patent US11479531B2, “Deoxyuridine triphosphatase inhibitors” (University of Southern California, priority 2015, dated 2022).

Columns and labels:
[1] = tested on: colorectal (HCT116 and SW620) cell line models; test: MTS growth inhibition assay; type: cell-based; conditions: increasing concentrations of 5-FU between 0 and 100 μmol/L; both colorectal cancer cell lines (HCT116, SW620)
Procedure: The Cell Titer AQueous MTS assay (Promega) is carried out according to the manufacturers guidelines. […] The combination effect is determined by the combination index (CI) method utilizing Calcusyn software (Biosoft, Ferguson, Mo.). […] CI values <1, synergism; 1-1.2, additive and >1.2, antagonism.
Test compounds are evaluated for their antitumor activity in colorectal cancer cells using the MTS growth inhibition assay. HCT116 and SW620 cells are exposed to increasing concentrations of each agent for 72 hours and growth inhibition is directly compared to vehicle-treated controls. The NSCLC cell lines A549 and H1299 are exposed to increasing concentrations of each agent for 72 hours and growth inhibition is directly compared to vehicle-treated controls.
Simultaneous treatment with increasing concentrations of 5-FU and a test compound at fixed concentrations of 25 μmol/L is determined.

[2] = tested on: colorectal (HCT116), breast (MCF-7) and non-small cell lung (H1299, A549, H358 and H460) cell line models; test: Colony forming assay; type: cell-based; conditions: increasing concentrations of FUdR between 0.5 and 2.5 μmol/L; all cell lines evaluated
Procedure: Colony forming assay showing the ability of colon (SW620, HCT116), non-small cell lung (A549, H460, H1299 and H358) and breast (MCF7) cancer cells to survive and proliferate following transient 24 hour exposure to test compounds, FUdR and combinations are determined. Specifically, cells are seeded at densities between 50 and 100 cells/well in 24-well plates. […] After 24 hours, drug is removed, cells are rinsed and allowed to outgrow for 10-14 days. At the conclusion of the outgrowth, cells are fixed in 60% ice cold methanol and stained with 0.1% crystal violet, scanned and counted. Data is presented as percentage of untreated controls (mean±SD). Fraction affected and combination indexes are calculated according to the method of Chou and Talalay where <1 is indicative of a synergistic drug interaction.
Colony forming assays are performed to evaluate the effectiveness of test compounds alone and in combination with the fluoropyrimidine thymidylate synthase (TS) inhibitor fluorodeoxyuridine (FUdR) at reducing cancer cell viability in colorectal (HCT116), breast (MCF-7) and non-small cell lung (H1299, A549, H358 and H460) cell line models.

| SMILES | growth inhibition [1] | colonies formed [2] |
| --- | --- | --- |
| O=c1[nH]cc(F)c(=O)[nH]1 [5-FU, 5-fluorouracil] | dose-dependent increases in growth inhibition |  |
| O=c1[nH]c(=O)n([C@H]2C[C@H](O)[C@@H](CO)O2)cc1F [FUdR, fluorodeoxyuridine] |  | dose-dependent decreases in colonies formed |
